Here are results for 16 molecules from publication PMC3357532, “Intracellular Loop 2 Peptides of the Human 5HT1a Receptor are Differential Activators of Gi” (International Journal of Peptides, 2012).

Read-outs that look alike come from different tables or passages of the source. Where no end group is shown, it is not given here.

The test system of assay [1] is CHO cells expressing the human 5HT1aR. Nature of the assay: Forskolin-stimulated cAMP production (EIA). Type of assay: cell-based. Conditions: for [cAMP] (SEM), relative to FSK-stimulated control: 30 uM FSK, 100 uM IBMX, 20 min 37°C, control = 100; for FSK stimulated cAMP (%): Figure 5, IBMX, FSK control = 100. Here is the method:
CHO cells were cultured to confluency in 12- or 24-well plates. Medium was aspirated, and the cells were rinsed twice in warm, serum-free F-12 medium. Cells were incubated for 20 min. at 37°C in 0.5 mls of serum-free F-12 medium containing 100 uM isobutylmethylxanthine (IBMX) and the following substances (final concs.) alone or in combination (see Figures 3 and 5): 30 μM forskolin (FSK; for all treatments); 1 μM 5-HT; peptide concentrations as noted in figure legends. Reactions were stopped by aspiration of medium and addition of 0.5 mL of 100 mM HCl. After 10 min., well contents were removed and centrifuged at 4000 rpm. Supernatants were diluted in 100 mM HCl, and cAMP was quantified directly in a microplate format by enzyme immunoassay (EIA) with a kit from Assay Designs (Ann Arbor). Triplicate-independent samples were assayed.
In general terms: Changes in cAMP serve as a functional read-out for many G protein-coupled receptors.

Assay [2] deals with Gi in H5-HT1aR membranes from transfected CHO cells. The assay can be described thus: [35S]GTPγS incorporation into Gi. The note with it: for GTP Incorp. (SEM), γ-[35S]-GTP into Gi, percent of control: peptide 30 uM (Figure 2), basal control = 100, 30 min 30°C. The class given is biochemical, human. Here is the method:
H5-HT1aR membranes from transfected CHO cells were incubated with 5-HT (0.1 μM) and/or peptide concentrations as noted in figure legends (see Figures 2 and 4) and the following incubation mixture: 20 mM HEPES buffer, pH 7.4, 5 mM MgCl2, 1 mM EDTA, 1 mM DTT, 100 mM NaCl, 100 uM GDP, 10 μM pargyline, 0.2 mM ascorbate, and 0.1 nM [35S]GTPγS [53, 58]. Mixtures were incubated for 30 min. at 30°C, and were terminated by dilution in cold buffer. The mixture was filtered on GF/C filters, rinsed twice in buffer, dried and counted by liquid scintillation. All values reported in are for specific binding (total nonspecific) of triplicates. Nonspecific binding was determined in the presence of cold γ-S-GTP (10 uM). Negative control is the above mixture minus test drug or 5HT. Positive control contains 5HT.
Background: GTPγS is a poorly hydrolysed GTP analogue; its binding reports G protein activation.

For assay [3] the test system is unchanged. Conditions: peptide 30 uM (Figure 2); ref Thiagaraj et al., 2007 [53]; SEM; cited from earlier work. The source says:
(§1) Table 2 ic2 Peptide mimic effect on [3H]8-OH-DPAT binding. All binding inhibition values are percent of control agonist (ag.) bound. The upper portion of the table is for peptides nearer the C-terminus, including P11 from Thiagaraj et al., 2007 [53]. These peptides decreased the specific high affinity binding of 5HT1aR agonist [^3H]-8-OH-DPAT by 50% at the given concentration. The lower portion | column: GTP Incorp. (SEM) || Table 3 ic3 Peptide mimic coupling and signal transduction data. Summary of data generated for all ic3 experiments with P12 and P13. P1 is included as a reference, from Hayataka et al., 1998 [49]. Nominal values for control agonist binding were 400 fmoles/mg protein. | column: [35S]-γ-S-GTP incorporation% above conro

The target in assay [4] is T1, H5-HT1aR (Homo sapiens, UniProt P08908).
T1 construct: expressed in transfected cells; host or cells: CHO cells (Chinese hamster ovary), crude membranes
T1 sequence (P08908 1-422): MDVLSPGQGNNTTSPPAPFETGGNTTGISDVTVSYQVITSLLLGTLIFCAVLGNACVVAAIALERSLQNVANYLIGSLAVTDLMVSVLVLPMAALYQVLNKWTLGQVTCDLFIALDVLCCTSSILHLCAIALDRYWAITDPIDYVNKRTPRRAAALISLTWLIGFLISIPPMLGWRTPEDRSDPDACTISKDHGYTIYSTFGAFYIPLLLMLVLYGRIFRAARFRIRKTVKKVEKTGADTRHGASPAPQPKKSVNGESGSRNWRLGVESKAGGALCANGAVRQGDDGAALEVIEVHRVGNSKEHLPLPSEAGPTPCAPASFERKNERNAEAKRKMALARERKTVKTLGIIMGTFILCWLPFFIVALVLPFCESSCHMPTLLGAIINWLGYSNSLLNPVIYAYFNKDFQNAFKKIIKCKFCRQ
The note with it: CHO H5-HT1aR membranes; ref Thiagaraj et al., 2007 [53]; read-out: Conc. (uM) at which specific high affinity [3H]8-OH-DPAT binding is decreased by 50% (IC50); cited from earlier work.
From the text: as §1, with “Conc. (uM); % cont. ag, bound,” for “GTP Incorp.”, “Agonist (%) inhibition” for “[35S]-γ-S-GTP incorporation% above conro”

For assay [5], the system named is CHO cells expressing the human 5HT1aR. The note with it: peptide 30 uM (Figure 3), 30 uM FSK, IBMX; ref Thiagaraj et al., 2007 [53]; SEM; cited from earlier work.
From the text: as §1, with “[cAMP]” for “GTP Incorp.”, “% Inhibition of FSK-stimulated cAMP” for “[35S]-γ-S-GTP incorporation% above conro”

Assay [6] deals with T1, H5-HT1aR. The assay can be described thus: Inhibition of agonist [3H]8-OH-DPAT binding (measure of receptor-G-protein coupling). Here is the method: Cells were trypsinized and centrifuged at low speed in ice-cold medium. The pellet was resuspended in ice-cold Earle's Balanced Salt Solution followed by centrifugation. Cells were resuspended in 10 mL of ice-cold binding buffer (50 mM Tris, 4 mM CaCl2, 10 μM pargyline, and pH 7.4), homogenized with Teflon-glass, and centrifuged for 450,000 g-min. at 4°C. For a crude membrane preparation, the pellet was resuspended in 30 mL of ice-cold binding buffer, homogenized on Teflon-glass and then by Polytron (setting 4) for 5 seconds, and stored on ice and assayed within the next 1.5 hours.
Binding of the agonist [3H]8-OH-DPAT ([3H]8-hydroxy-2-(di-n-propylamino)tetralin) to H5-HT1aR followed well-characterized protocols. Radioligands were purchased from New England Nuclear (NEN), Boston, MA, and 1 mL reaction mixtures, in triplicate, were incubated for 30 min. in a 30°C shaker. The 1 mL mixture was 700 μL of receptor preparation; 100 μL of binding buffer (for total binding) or 10 μM 5-HT (for nonspecific binding), 100 μL of the tritiated agent (concentration of 0.5 nM [3H] 8-OH-DPAT), and 100 μL of peptide or binding buffer in the case of controls.
Reactions were stopped by addition of 4 mL of ice-cold 50 mM Tris buffer, pH 7.4, and vacuum filtration on glass fiber filters (Whatman GF/B). Filters were rinsed twice in 5 mL of ice-cold Tris buffer, dried, and counted in 5 mL of Ecoscint (National Diagnostics) liquid scintillation fluid in a Beckman LS 6500. Homogenates were assayed for protein to maintain a nominal value of 50 μg protein per filter. All tubes were run in triplicate.

The target of assay [7] is Gi (G protein coupled to the human 5HT1a receptor in CHO cells) (Chinese hamster (endogenous in CHO)).
For assay [8] the target is unchanged. This is another data set of the same source.
Where [9] appears, read: CHO H5-HT1aR membranes, 0.5 nM [3H]8-OH-DPAT, 30 min 30°C, shallow curves, read-out: Conc. (uM) at which specific high affinity [3H]8-OH-DPAT binding is decreased by 50% (IC50).

`NCCc1c[nH]c2ccc(O)cc12` [Peptide 5HT, 5-hydroxytryptamine, reference compound]: the “[cAMP] (SEM), relative to FSK-stimulated control” value in assay [1] (1 uM 5-HT) is 21 (4) %. The “FSK stimulated cAMP (%)” value in assay [1] (5HT alone (1 uM per method)) was 24 ± 1%.
As for “DPIDYVNKRT [Peptide P25, ic2 loop peptide mimic of H5HT1aR]”, the “[cAMP] (SEM), relative to FSK-stimulated control” value in assay [1] (peptide 30 uM (Figure 3)) was 64 (3) %. Moreover, the “GTP Incorp. (SEM), γ-[35S]-GTP into Gi, percent of control” value (“GTP Incorp. (SEM) … percent of control” for short) in assay [2] is reported as 126 (10) %.
Turning to “IALDRYWAITD [Peptide P11, ic2 N-terminal (TM3/ic2) peptide mimic of H5HT1aR from a previous study, Thiagaraj et al., 2007]”, in assay [3], the “GTP Incorp. (SEM) … percent of control” value was 100 (3) %. Further, the IC50 with H5-HT1aR [4] is 7 µM. In addition, in assay [5], the “[cAMP] (SEM), relative to FSK-stimulated control” value is listed as 87 (8) %.
Regarding “IDYVNKRTPR [Peptide P26, ic2 loop peptide mimic of H5HT1aR]”, in assay [1] (peptide 30 uM (Figure 3)), the “[cAMP] (SEM), relative to FSK-stimulated control” value is on record as 100 (5) %. For the same molecule, the “GTP Incorp. (SEM) … percent of control” value in assay [2] is listed as 111 (9) %.
ITDPIDYVNK [Peptide P24]: the “[cAMP] (SEM), relative to FSK-stimulated control” value in assay [1] (peptide 30 uM (Figure 3)) was 45 (7) %. For the same molecule, the “GTP Incorp. (SEM) … percent of control” value in assay [2] is recorded as 146 (17) %.
Take “KTVKKVEKTG [Peptide P12, ic3 peptide mimic of H5HT1aR]”: the inhibition at H5-HT1aR [6] (peptide 30 uM, maximum inhibition possible with the highest soluble concentration) came to 28%; in assay [1] (peptide 30 uM, read-out: % Inhibition of FSK-stimulated cAMP), 0%. Further, the “Change in intracellular cAMP concentration (in words)” value in assay [1] (FSK-stimulated, peptide 30 uM (Figure 5)) is “not altered”. Also, in assay [1] (peptide alone 30 uM), the “FSK stimulated cAMP (%)” value was determined as 100 ± 6%. Further, in assay [2] (peptide 30 uM), the “[35S]-γ-S-GTP incorporation% above conro” value is 24%.
Take LDRYWAITDP [Peptide P21]: the IC50 on H5-HT1aR [6] (setting [9]) worked out at 15 µM.
On the same count and under the same terms, next, RYWAITDPID [Peptide P22]: 16 µM.
For VKKVEKTGAD [Peptide P13], the IC50 at H5-HT1aR [6] ([3H]8-OH-DPAT, if 50% is listed, the concentration is the IC50, read-out: Agonist (%) inhibition: concentration giving 50% (IC50)) came to 15 µM. Also, the inhibition on H5-HT1aR [6] (peptide 15 uM) stood at 50%.
For the molecule WAITDPIDYV [Peptide P23], the IC50 at H5-HT1aR [6] (setting [9]) amounted to 30 µM.
With “YVNKRTPRPR [Peptide P27, ic2 loop peptide mimic of H5HT1aR, C-terminal end]”, the “[cAMP] (SEM), relative to FSK-stimulated control” value in assay [1] (peptide 30 uM (Figure 3)) is 132 (6) %. Also, the “GTP Incorp. (SEM) … percent of control” value in assay [2] is listed as 130 (7) %.
Take KTVKKVEKTG [P12, ic3 loop peptide mimic of the human 5HT1a receptor]: in assay [7], the % inhibition of FSK-stimulated cAMP at 30 uM peptide, CHO cells expressing H5HT1aR is -0 % inhibition; the [35S]-γ-S-GTP incorporation into Gi, % above control, at 30 uM peptide, CHO H5HT1aR membranes (% above control) worked out at 24; the agonist ([3H]8-OH-DPAT) % inhibition at 30 uM peptide, H5-HT1aR in CHO membranes (maximum inhibition possible with the highest soluble concentration; uncoupling of receptor from G protein) is 28 % inhibition.
Take RYWAITDPID [P22, ic2 loop peptide mimic of the human 5HT1a receptor]: in assay [8], the IC50 of agonist inhibition: peptide concentration at which specific [3H]8-OH-DPAT binding to H5-HT1aR in CHO membranes falls to about 50% of control (uncoupling of receptor from G protein) was determined as 16 µM.
The same measure, in the same setting: next, LDRYWAITDP [P21, ic2 loop peptide mimic of the human 5HT1a receptor]: 15 µM.
Still for that read-out and setting: next, WAITDPIDYV [P23, ic2 loop peptide mimic of the human 5HT1a receptor]: 30 µM.
In the case of VKKVEKTGAD [P13, ic3 loop peptide mimic of the human 5HT1a receptor], in assay [7], the % inhibition of FSK-stimulated cAMP at 30 uM peptide, CHO cells expressing H5HT1aR (negative: cAMP increased) was -24 % inhibition; the IC50 of agonist inhibition: peptide concentration giving 50% inhibition of [3H]8-OH-DPAT binding to H5-HT1aR in CHO membranes (uncoupling of receptor from G protein) amounted to 15 µM; the [35S]-γ-S-GTP incorporation into Gi, % above control, at 30 uM peptide, CHO H5HT1aR membranes (% above control) was found to be 12.

The inhibition is the percentage by which the read-out fell short of the control.
